Results reported in US20220387611A1, “METHODS FOR TREATING CANCER” (BicycleRD Limited, priority 2019, published 2022).
Starred links: 1 amine or outer side, 2 acyl side, 3 side chain; linkers in the order of their positions; H or OH if unused. Positions of bridges follow the written chain, without caps; N, C: chain ends. Non-standard residues stand in square brackets, D forms with d. Residues, ends and D or L forms follow the SMILES beside them. 1Nal = N[C@@H](Cc1cccc2ccccc12)C(=O)O; TBMB = c1c(C[*:1])cc(C[*:3])cc1C[*:2]; Tle = CC(C)(C)[C@H](N)C(=O)O; βAla = NCCC(=O)O; Sar = CNCC(=O)O

Experiments:
MMP1 [1] = molecular target: T1, MMP1 (Homo sapiens, UniProt P03956); assay: Effect on related MMP catalytic activity; format: biochemical; settings: in vitro
T1 sequence (P03956 100-469): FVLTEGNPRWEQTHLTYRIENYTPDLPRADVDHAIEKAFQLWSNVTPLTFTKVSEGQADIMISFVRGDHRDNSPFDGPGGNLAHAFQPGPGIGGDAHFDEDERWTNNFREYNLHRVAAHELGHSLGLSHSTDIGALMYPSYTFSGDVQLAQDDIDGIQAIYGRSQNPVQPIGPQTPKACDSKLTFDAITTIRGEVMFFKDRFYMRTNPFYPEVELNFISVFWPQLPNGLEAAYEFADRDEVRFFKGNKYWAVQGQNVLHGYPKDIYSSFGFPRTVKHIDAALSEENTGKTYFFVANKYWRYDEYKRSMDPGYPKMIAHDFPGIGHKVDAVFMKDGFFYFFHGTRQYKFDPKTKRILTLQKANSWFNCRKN

catalytic domain of MT1 = catalytic domain of MT1 (Homo sapiens, UniProt P50281); assay: Bicycle peptide binding to catalytic domain
MT1 = MT1 (Homo sapiens, UniProt P50281); assay: Effect on catalytic activity of the protease in vitro; format: biochemical
MMP15 = MMP15 (Homo sapiens, UniProt P51511); assay: Binding to related MMP family member
Pro-MMP1 = molecular target: T2, Pro-MMP1 (Homo sapiens, UniProt P03956); assay: Binding to related MMP family member
T2 construct: MMP family members tested (MMP15, MMP16, MMP24, MMP1, Pro-MMP1, MMP2)
T2 sequence (P03956 20-469 limits assumed): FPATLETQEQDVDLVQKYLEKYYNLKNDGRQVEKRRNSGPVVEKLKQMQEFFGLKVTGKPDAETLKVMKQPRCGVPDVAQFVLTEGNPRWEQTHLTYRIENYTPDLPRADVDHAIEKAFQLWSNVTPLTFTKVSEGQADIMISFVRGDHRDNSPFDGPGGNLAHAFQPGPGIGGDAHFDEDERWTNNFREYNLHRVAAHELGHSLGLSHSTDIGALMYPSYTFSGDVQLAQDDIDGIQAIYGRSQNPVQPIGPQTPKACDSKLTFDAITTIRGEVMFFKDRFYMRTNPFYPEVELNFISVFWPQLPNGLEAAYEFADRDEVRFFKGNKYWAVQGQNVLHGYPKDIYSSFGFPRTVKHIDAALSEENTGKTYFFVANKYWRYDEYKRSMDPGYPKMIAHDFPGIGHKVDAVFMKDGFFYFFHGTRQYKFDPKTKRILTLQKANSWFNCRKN

[2] = test system: cell migration or invasion; assay: Effect on cell migration or invasion; format: cell-based; settings: in vitro
MMP16 = MMP16 (Homo sapiens, UniProt P51512); assay: Binding to related MMP family member
MMP1 [3] = molecular target: T1, MMP1; assay: Binding to related MMP family member
MMP2 [4] = molecular target: T3, MMP2 (Homo sapiens, UniProt P08253); assay: Effect on related MMP catalytic activity; format: biochemical; settings: in vitro
T3 sequence (P08253 110-660): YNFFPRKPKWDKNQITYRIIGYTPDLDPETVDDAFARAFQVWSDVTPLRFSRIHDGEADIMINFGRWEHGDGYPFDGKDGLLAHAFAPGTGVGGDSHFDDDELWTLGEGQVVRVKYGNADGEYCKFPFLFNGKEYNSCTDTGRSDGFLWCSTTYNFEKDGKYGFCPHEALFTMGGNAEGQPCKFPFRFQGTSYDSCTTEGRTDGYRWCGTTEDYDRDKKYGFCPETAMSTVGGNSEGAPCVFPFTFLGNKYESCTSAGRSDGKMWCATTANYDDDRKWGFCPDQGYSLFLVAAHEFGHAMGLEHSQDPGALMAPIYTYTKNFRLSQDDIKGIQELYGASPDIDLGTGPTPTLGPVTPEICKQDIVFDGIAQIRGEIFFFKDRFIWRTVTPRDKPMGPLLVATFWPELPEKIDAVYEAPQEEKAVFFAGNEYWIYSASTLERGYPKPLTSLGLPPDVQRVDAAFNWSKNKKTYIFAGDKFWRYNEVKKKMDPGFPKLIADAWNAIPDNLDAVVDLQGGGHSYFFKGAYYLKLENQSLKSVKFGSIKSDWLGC

MMP24 = MMP24 (Homo sapiens, UniProt Q9Y5R2); assay: Binding to related MMP family member
MMP2 [5] = molecular target: T3, MMP2; assay: Binding to related MMP family member
MMP9 = MMP9 (Homo sapiens, UniProt P14780); assay: Effect on related MMP catalytic activity; format: biochemical; settings: in vitro
[6] = test system: MT1-positive tumor xenografts; assay: Tumor localization after IV injection into mice bearing MT1-positive tumor xenografts; settings: mouse, in vivo

Chain of MMP15 (P51511 132-669, species assumed): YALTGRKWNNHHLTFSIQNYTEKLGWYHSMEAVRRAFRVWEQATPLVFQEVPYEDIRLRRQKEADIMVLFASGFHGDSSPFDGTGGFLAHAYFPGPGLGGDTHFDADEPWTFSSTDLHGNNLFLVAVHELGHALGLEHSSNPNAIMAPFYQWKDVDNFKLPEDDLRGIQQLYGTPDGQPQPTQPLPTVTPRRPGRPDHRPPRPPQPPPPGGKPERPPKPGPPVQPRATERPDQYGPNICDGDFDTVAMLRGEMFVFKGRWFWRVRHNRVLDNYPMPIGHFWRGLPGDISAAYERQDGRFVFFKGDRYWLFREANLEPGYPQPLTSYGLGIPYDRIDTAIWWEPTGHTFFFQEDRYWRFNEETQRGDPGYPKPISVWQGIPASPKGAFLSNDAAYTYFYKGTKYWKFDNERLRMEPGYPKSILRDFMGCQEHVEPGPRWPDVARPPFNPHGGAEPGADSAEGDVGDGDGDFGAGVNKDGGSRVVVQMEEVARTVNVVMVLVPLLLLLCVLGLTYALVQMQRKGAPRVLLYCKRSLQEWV
Chain of MMP24 (Q9Y5R2 156-645, species assumed): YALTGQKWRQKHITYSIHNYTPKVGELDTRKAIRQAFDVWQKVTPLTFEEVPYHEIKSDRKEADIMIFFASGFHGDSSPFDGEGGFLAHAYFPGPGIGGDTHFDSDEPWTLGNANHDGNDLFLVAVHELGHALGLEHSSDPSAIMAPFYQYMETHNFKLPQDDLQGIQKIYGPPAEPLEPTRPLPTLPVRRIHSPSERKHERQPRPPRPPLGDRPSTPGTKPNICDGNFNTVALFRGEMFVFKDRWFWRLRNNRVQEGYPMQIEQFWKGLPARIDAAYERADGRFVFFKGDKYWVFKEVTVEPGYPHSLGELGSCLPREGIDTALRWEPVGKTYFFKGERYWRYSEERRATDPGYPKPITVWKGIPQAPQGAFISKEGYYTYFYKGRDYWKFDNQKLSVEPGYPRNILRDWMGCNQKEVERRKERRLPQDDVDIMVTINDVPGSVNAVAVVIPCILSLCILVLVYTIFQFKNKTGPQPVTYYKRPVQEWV
Chain of MMP16 (P51512 120-607, species assumed): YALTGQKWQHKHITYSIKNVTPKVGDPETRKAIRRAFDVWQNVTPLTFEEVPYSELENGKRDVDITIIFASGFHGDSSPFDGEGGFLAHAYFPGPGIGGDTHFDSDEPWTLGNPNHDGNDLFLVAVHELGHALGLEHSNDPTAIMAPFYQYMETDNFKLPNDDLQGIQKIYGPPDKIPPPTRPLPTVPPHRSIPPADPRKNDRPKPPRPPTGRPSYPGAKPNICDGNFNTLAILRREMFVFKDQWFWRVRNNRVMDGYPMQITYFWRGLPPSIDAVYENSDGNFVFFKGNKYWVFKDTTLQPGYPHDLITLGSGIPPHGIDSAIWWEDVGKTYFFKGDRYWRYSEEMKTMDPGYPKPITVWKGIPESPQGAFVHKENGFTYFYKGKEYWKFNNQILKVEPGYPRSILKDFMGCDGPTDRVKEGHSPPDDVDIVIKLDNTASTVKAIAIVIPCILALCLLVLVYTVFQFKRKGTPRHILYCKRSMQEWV
Chain of MMP9 (P14780 94-707, species assumed): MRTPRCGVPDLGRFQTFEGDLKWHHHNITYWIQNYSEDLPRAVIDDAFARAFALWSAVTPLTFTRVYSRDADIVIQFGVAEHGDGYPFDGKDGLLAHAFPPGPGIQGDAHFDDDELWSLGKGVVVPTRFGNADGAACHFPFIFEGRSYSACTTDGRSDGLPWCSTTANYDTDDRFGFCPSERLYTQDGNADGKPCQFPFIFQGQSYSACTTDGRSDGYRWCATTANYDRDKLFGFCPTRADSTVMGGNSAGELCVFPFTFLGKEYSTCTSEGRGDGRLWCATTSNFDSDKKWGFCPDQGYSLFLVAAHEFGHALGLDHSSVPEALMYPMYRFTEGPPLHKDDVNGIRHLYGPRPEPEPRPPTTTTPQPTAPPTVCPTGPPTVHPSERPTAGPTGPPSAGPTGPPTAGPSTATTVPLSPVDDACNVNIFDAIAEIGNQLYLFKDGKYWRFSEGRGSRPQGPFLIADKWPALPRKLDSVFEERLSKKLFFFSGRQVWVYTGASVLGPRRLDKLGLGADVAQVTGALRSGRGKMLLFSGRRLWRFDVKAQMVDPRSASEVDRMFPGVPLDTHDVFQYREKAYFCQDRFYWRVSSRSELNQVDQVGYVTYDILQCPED

C[C@H](NC(=O)CN(C)C(=O)CN(C)C(=O)CN(C)C(=O)CN(C)C(=O)CN(C)C(=O)CN(C)C(=O)CN(C)C(=O)CN(C)C(=O)CN(C)C(=O)CN(C)C(=O)CCN)C(=O)N[C@H]1CSCc2cc3cc(c2)CSC[C@H](NC(=O)[C@@H](C)NC(=O)[C@H](Cc2cccc4ccccc24)NC(=O)[C@H](CCC(=O)O)NC(=O)[C@H](CC(N)=O)NC(=O)[C@@H](C)NC1=O)C(=O)N[C@@H](CCC(=O)O)C(=O)N[C@@H](CC(=O)O)C(=O)N[C@@H](Cc1ccccc1)C(=O)N[C@@H](Cc1ccc(O)cc1)C(=O)N[C@@H](CC(=O)O)C(=O)N[C@@H](C(C)(C)C)C(=O)N[C@H](C(N)=O)CSC3 [N241] (H-[βAla][Sar][Sar][Sar][Sar][Sar][Sar][Sar][Sar][Sar][Sar]AC[dA]NE[1Nal][dA]CEDFYD[Tle]C-NH2; linker 13-19-26 via TBMB)
impact on MMP1 catalytic activity (MMP1 [1]): no direct impact
binding to the catalytic domain (catalytic domain of MT1): no binding
impact on the catalytic activity of the protease (MT1) (MT1): no direct impact
binding toward MMP15 (MMP15): no binding
binding toward Pro-MMP1 (Pro-MMP1): no binding
impact on cell migration or invasion [2]: no direct impact
binding toward MMP16 (MMP16): no binding
binding toward MMP1 (MMP1 [3]): no binding
impact on MMP2 catalytic activity (MMP2 [4]): no direct impact
binding toward MMP24 (MMP24): no binding
binding toward MMP2 (MMP2 [5]): no binding
impact on MMP9 catalytic activity (MMP9): no direct impact

C[C@H](NC(=O)CN(C)C(=O)CN(C)C(=O)CN(C)C(=O)CN(C)C(=O)CN(C)C(=O)CN(C)C(=O)CN(C)C(=O)CN(C)C(=O)CN(C)C(=O)CN(C)C(=O)CCN)C(=O)N[C@H]1CSCc2cc3cc(c2)CSC[C@H](NC(=O)[C@@H](C)NC(=O)[C@H](Cc2cccc4ccccc24)NC(=O)[C@H](CCC(=O)O)NC(=O)[C@H](CC(N)=O)NC(=O)[C@@H](C)NC1=O)C(=O)N[C@@H](CCC(=O)O)C(=O)N[C@@H](CC(=O)O)C(=O)N[C@@H](Cc1ccccc1)C(=O)N[C@@H](Cc1ccc(O)cc1)C(=O)N[C@@H](CC(=O)O)C(=O)N[C@@H](C(C)(C)C)C(=O)N[C@H](C(N)=O)CSC3 [^177Lu-loaded N241, metal not drawn] (H-[βAla][Sar][Sar][Sar][Sar][Sar][Sar][Sar][Sar][Sar][Sar]AC[dA]NE[1Nal][dA]CEDFYD[Tle]C-NH2; linker 13-19-26 via TBMB; N-terminus and C-terminus assumed)
tumor localization [6]: rapid tumor localization
